Test results: paper PMC3118119, “Functional characterization of an alkaline exonuclease and single strand annealing protein from the SXT genetic element of Vibrio cholerae” (BMC Molecular Biology, 2011)
Structures can show the parent of a compound that is named as a salt. Where two headings read alike, the source gives them in different places.

How the values were obtained:
[1] = molecular target: SXT-Exo (S066) (Vibrio cholerae, UniProt Q8KQV9); experiment: quenched PicoGreen dsDNA exonuclease assay; type: biochemical
[2] = molecular target: SXT-Exo alkaline exonuclease (S066) from the SXT genetic element of Vibrio cholerae (SXT integrating conjugative element of Vibrio cholerae) (UniProt Q79S39); experiment: SEC; Superdex 200 HR 10/300 GL, 25 mM Tris-HCl pH7.4, 150 mM NaCl, 1 mM EDTA, 5 mM imidazole, 0.4 ml/min, 4°C; column calibrated with protein standards; oligomer size from the apparent molecular weight
[3] = molecular target: P03697; experiment: as above
[4] = molecular target: Q79S39; experiment: as above

SXT-Exo (S066), sequence (Q8KQV9 1-338 limits assumed): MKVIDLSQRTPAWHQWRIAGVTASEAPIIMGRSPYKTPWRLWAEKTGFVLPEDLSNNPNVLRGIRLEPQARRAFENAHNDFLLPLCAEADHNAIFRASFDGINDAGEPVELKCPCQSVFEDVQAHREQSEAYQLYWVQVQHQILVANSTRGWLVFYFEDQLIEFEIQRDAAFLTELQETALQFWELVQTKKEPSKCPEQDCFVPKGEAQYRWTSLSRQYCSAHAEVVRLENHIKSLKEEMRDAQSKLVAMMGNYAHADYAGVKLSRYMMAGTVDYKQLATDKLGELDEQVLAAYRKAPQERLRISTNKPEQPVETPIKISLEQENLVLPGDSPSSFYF

**Q.** For `O=S(=O)(O)O` [potassium sulfate], which IC50 [1] is on record?
**A.** Its IC50 is about 35 mM.

**Q.** With `O=P(O)(O)O` [sodium phosphate] as the molecule, how does the IC50 ([1]; IC50) read?
**A.** Its IC50 is 25 mM.

**Q.** `O=S(=O)(O)O` [sodium sulfate] was tested. Which IC50 ([1]; IC50) did it give?
**A.** Its IC50 is about 20 mM.

**Q.** With “SXT-Exo alkaline exonuclease (S066) from the SXT genetic element of Vibrio cholerae (from UniProt Q79S39 1-215) (enzyme)” as the molecule, how does the stoichiometry N [2] read?
**A.** Its stoichiometry N is 3.

B1: lambda-Exo alkaline exonuclease from bacteriophage lambda (protein)
chain: MTPDIILQRTGIDVRAVEQGDDAWHKLRLGVITASEVHNVIAKPRSGKKWPDMKMSYFHTLLAEVCTGVAPEVNAKALAWGKQYENDARTLFEFTSGVNVTESPIIYRDESMRTACSPDGLCSDGNGLELKCPFTSRDFMKFRLGGFEAIKSAYMAQVQYSMWVTRKNAWYFANYDPRMKREGLHYVVIERDEKYMASFDEIVPEFIEKMDEALAEIGFVFGEQWR
**Q.** How did the “monomers per oligomer from the SEC apparent molecular weight” value [3] turn out when B1 was run?
**A.** Its value is “corresponded to 3.35 protein monomers”.

B2: SXT-Exo alkaline exonuclease (S066) from the SXT genetic element of Vibrio cholerae (protein)
chain: MKTLSERLNHALQLTGVTQSELARRIGIKQQSISQICSGKSARSRYTMQIAEALRVNAHWLATGDGEIGLGVGNVEVGPDIKGRIPLINWVQAGDWTEIAEGFAHEDAEEWREVTGKAHEGCFALRVKGDSMENPSGKKSIPEGAVIVVDPELPYSSGSLVVARLDDSKEATFKQLVIDGEQKYLKPLNPQYPAIPINGNCTIIGVVRQAIIDFW
**Q.** How did the “monomers per oligomer from the SEC apparent molecular weight” value [4] turn out when B2 was run?
**A.** The value was “corresponded to ca. 3.5 SXT-Exo monomers”.
